Measurements: patent US8038997B2, “Anti-marinobufagenin antibodies and methods for their use” (priority 2005, dated 2011)

How the values were obtained:
3E9 mAb = experiment: Cross-reactivity of the 3E9 mAb (50% displacement of bound MBG); type: binding, mouse; conditions: amount of MBG for 50% displacement versus amount of cross-reactant
From the text: (§1) The percent cross-reactivity of the 3E9, 4G4 and 4H2 mAbs was defined as the ratio of the amount of MBG required to displace 50% of maximally bound MBG from the particular anti-MBG mAb, versus the amount of the cross-reactant to give the same 50% displacement. The binding specificities of the 3E9 mAb for a panel of steroids are shown in Table I; those for the 4112 and 4G4 mAbs are shown in Table II.

4G4 mAb = experiment: Cross-reactivity of the 4G4 mAb (50% displacement of bound MBG); type: binding, mouse; conditions: amount of MBG for 50% displacement versus amount of cross-reactant
From the text: as §1

4H2 mAb = experiment: Cross-reactivity of the 4H2 mAb (50% displacement of bound MBG); type: binding, mouse; conditions: amount of MBG for 50% displacement versus amount of cross-reactant
From the text: as §1

Sprague-Dawley rats = experiment: Experimental uremic cardiomyopathy: partial nephrectomy, MBG infusion, immunization against MBG-BSA
Method: (§2) Male, Sprague-Dawley were use in this study. Rats subjected to sham surgery and no MBG infusion or partial nephrectomy were referred to as Sham (n=18). […] MBG-infused rats were referred to as MBG (n=20). Rats immunized against MBG-BSA conjugate before partial nephrectomy were referred to as PNx-IM (n=18).
(§3) MBG was isolated from toad (Bufo Marinus) venom. […] MBG was infused for a period of 4 weeks at 10 μg/kg per day with an osmotic minipump (Alzet Model 2004, Durect Corp).
(§4) Partial nephrectomy (five-sixth nephrectomy) was induced by removal of the right kidney and selective infarction of two-thirds of the left kidney with silk ligatures.
(§5) Rats were immunized with an MBG-BSA conjugate and subjected to partial nephrectomy. The immunization schedule was 3 weekly injections (250 μg/kg per week SQ) in complete Freund's adjuvant before the partial nephrectomy with a last boost at the time of surgery.
(§6) BP was measured once a week by the tail-cuff method in conscious, restrained rats with equipment made by IITC, Inc (Amplifier model 229, Monitor model 31, Test chamber Model 306; IITC Life Science). Before sacrifice at 4 weeks, animals had ventricular pressures determined by placement of a 2F Millar Microtip Catheter Transducer (Millar Instruments Inc) into the left ventricle through a carotid insertion. Hemodynamic data were acquired at 500 Hz and stored electronically using a BioPac MP110 acquisition system and AcqKnowledge 4.7.3 software (BIOPAC Systems, Inc). The values of left ventricular end-diastolic pressure (LVEDP), systolic pressure, developed pressure, maximal velocity of rise or fall in pressure (dP/dt) and the time constant for isovolumic relaxation were determined using standard methods. At the end of 4 weeks, 2D and M-mode echocardiographic studies were performed using a Philips Sonos 5500 cardiovascular ultrasound imaging system (Philips Medical Systems) equipped with a 15 MHz linear transducer. Parasternal long-axis and short-axis views were obtained.
(§7) MBG and ouabain-like compound (OLC) in plasma and urine was determined at 4 weeks after extraction with C-18 columns.
(§8) At the time of sacrifice, left ventricles were quickly dissected out, frozen in liquid nitrogen, and stored at −80° C. until further analysis. Western blot analysis was performed using SDS-PAGE gels (Ready Gel, BioRad).
(§9) Total protein carbonyl concentration of both the plasma and left ventricular homogenate was determined by ELISA using the Zentech PC Test kit (Northwest Life Science Specialties). Total plasma malondialdehyde was measured spectrophotometrically using the Bioxytech MDA-586 kit (Oxis Research).
(§10) To measure sarcoplasmic reticulum calcium ATPase activity, which is predominantly SERCA2a activity in left ventricles of rat cardiac tissue, the method of Simonides and van Hardeveld (Simonides and van Hardeveld, Anal. Biochem. 191:321-331, 1990) was used with minor modifications.
(§11) Hematocrit was measured from whole blood collected in heparinized capillary tubes and spun on a microhematocrit centrifuge (Fisher Scientific). Plasma creatinine was determined spectrophotometrically with a colorimetric end point assay (Teco Diagnostics). Plasma aldosterone levels were measured by ELISA (Cayman). Plasma parathyroid hormone was assayed using the Rat Intact PTH ELISA kit (Immutopics). All of the analyses were performed on blood collected upon sacrifice at 4 weeks.

[1] = as above; conditions: male, Sprague-Dawley, rat, plasma, other: infusion with an osmotic minipump, 10 μg/kg per day
Method: as §2, §3, §4, §5, §6, §7, §8, §9, §10, §11

[2] = tested on: polyclonal antidigoxin rabbit antibody; experiment: DELFIA immunoassay, displacement of digoxin standards; type: binding; conditions: equimolar concentrations of MBG and its conjugate
From the text: Prior to immunization, the conjugate MBG-glycoside-BSA was compared with MBG for its ability to react with polyclonal antidigoxin rabbit antibody, using a DELFIA immunoassay.

[3] = 4 weeks after MBG infusion or immunization prior to partial nephrectomy

Compound	Percent cross-immunoreactivity (3E9 mAb)	4G4 Percent cross-immunoreactivity (4G4 mAb)	4H2 Percent cross-immunoreactivity (4H2 mAb)	further results
C[C@]12C[C@H](O)[C@H]3[C@@H](CCC4=CC(=O)CC[C@@]43C)[C@@H]1CC[C@@H]2C(=O)CO [Corticosterone]	<0.01%	–	–	–
C[C@]12CC[C@H](OC(=O)CCCCCCC(=O)N[C@@H](CCCN=C(N)N)C(=O)O)C[C@@]1(O)CC[C@@H]1[C@@H]2CC[C@]2(C)[C@@H](c3ccc(=O)oc3)C[C@H]3O[C@]132 [Marinobufotoxin]	4%	44%	55%	–
Telocinobufotoxin	7%	–	–	–
C[C@]12C[C@@H](O)[C@H]3[C@@H](CC[C@]4(O)C[C@@H](O)C[C@@H](O)[C@]34CO)[C@@]1(O)CC[C@@H]2C1=CC(=O)OC1 [Ouabagenin]	<0.01%	–	–	–
C[C@]12C=CC(=O)C=C1CC[C@@H]1[C@@H]2C(=O)C[C@@]2(C)[C@H]1CC[C@]2(O)C(=O)CO [Prednisone]	<0.01%	–	–	–
C[C@H]1O[C@@H](O[C@H]2[C@@H](O)C[C@H](O[C@H]3[C@@H](O)C[C@H](O[C@H]4CC[C@@]5(C)[C@H](CC[C@@H]6[C@@H]5C[C@@H](O)[C@]5(C)[C@@H](C7=CC(=O)OC7)CC[C@]65O)C4)O[C@@H]3C)O[C@@H]2C)C[C@H](O)[C@@H]1O [Digoxin]	1.8%	0.003%	0.03%	–
CC(=O)S[C@@H]1CC2=CC(=O)CC[C@]2(C)[C@H]2CC[C@@]3(C)[C@@H](CC[C@@]34CCC(=O)O4)[C@H]12 [Spironolactone]	0.22%	–	–	–
C[C@]12CC[C@H](O)C[C@H]1CC[C@@H]1[C@@H]2CC[C@]2(C)[C@@H](c3ccc(=O)oc3)CC[C@]12O [Bufalin]	0.25%	0.08%	0.07%	–
C[C@@H]1O[C@@H](O[C@H]2C[C@@H](O)[C@]3(CO)[C@H]4[C@H](O)C[C@]5(C)[C@@H](C6=CC(=O)OC6)CC[C@]5(O)[C@@H]4CC[C@]3(O)C2)[C@H](O)[C@H](O)[C@H]1O [Ouabain]	0.3%	0.004%	0.03%	–
C[C@H]1O[C@@H](O[C@H]2[C@@H](O)C[C@H](O[C@H]3[C@@H](O)C[C@H](O[C@H]4CC[C@@]5(C)[C@H](CC[C@@H]6[C@@H]5CC[C@]5(C)[C@@H](C7=CC(=O)OC7)CC[C@]65O)C4)O[C@@H]3C)O[C@@H]2C)C[C@H](O)[C@@H]1O [Digitoxin]	0.7%	–	–	–
CC(=O)[C@H]1CC[C@H]2[C@@H]3CCC4=CC(=O)CC[C@]4(C)[C@H]3CC[C@]12C [Progesterone]	0.3%	–	–	–
C[C@]12CC[C@H](O)C[C@H]1CC[C@@H]1[C@@H]2CC[C@]2(C)[C@@H](c3ccc(=O)oc3)C[C@H]3O[C@]132 [Resibufagenin]	–	0.6%	0.2%	–
C[C@@H]1O[C@@H](O[C@@H]2C=C3CC[C@@H]4[C@H](CC[C@]5(C)[C@@H](c6ccc(=O)oc6)CC[C@]45O)[C@@]3(C)CC2)[C@H](O)[C@H](O)[C@H]1O [Proscillaridin]	3%	–	–	–
CC(=O)O[C@H]1[C@H]2O[C@]23[C@@H]2CC[C@@H]4C[C@@H](O)CC[C@]4(C)[C@H]2CC[C@]3(C)[C@H]1c1ccc(=O)oc1 [Cinobufagin]	1.4%	0.07%	0.11%	–
C[C@]12CC[C@H](O)C[C@@]1(O)CC[C@@H]1[C@@H]2CC[C@]2(C)[C@@H](c3ccc(=O)oc3)CC3O[C@@]312 (stereo partly drawn) [MBG, 3β,5β-dihydroxy-14,15-epoxy bufadienolide]	100%	100%	100%	Hematocrit (Sprague-Dawley rats; [3]): 44.6 ± 0.9%; Left ventricular carbonylated protein (Sprague-Dawley rats; [3]): 505 ± 22 pmol/mg protein; Plasma [OLC] (Sprague-Dawley rats; [3]): 493 ± 41 pmol/L; Plasma aldosterone (Sprague-Dawley rats; [3]): 322 ± 38 pg/mL; Plasma carbonylated protein (Sprague-Dawley rats; [3]): 378 ± 15 pmol/mg protein; Plasma creatinine (Sprague-Dawley rats; [3]): 0.52 ± 0.07 mg/dL; Plasma parathyroid hormone (Sprague-Dawley rats; [3]): 41 ± 9 pg/mL; Plasma total malondialdehyde (Sprague-Dawley rats; [3]): 474 ± 41 nm; Urinary MBG excretion (UMBGV) (Sprague-Dawley rats; [3]): 49.1 ± 3.5 pmol/24 h; Urinary OLC excretion (UOLCV) (Sprague-Dawley rats; [3]): 10.6 ± 0.9 pmol/24 h; left ventricular hemodynamics (dP/dt, LVEDP, time constant for isovolumic relaxation) (Sprague-Dawley rats; Millar catheter after 4 weeks): only the changes in LVEDP and time constant for isovolumic relaxation achieved statistical significance; heart weight / cardiac size (Sprague-Dawley rats; after 4 weeks): significant increases in heart weight; echocardiographic changes (wall thickness, chamber size, FS) (Sprague-Dawley rats; at 4 weeks, MBG versus sham, immunization versus partial nephrectomy): not associated with significant changes; systolic BP during the 4 weeks of observation (Sprague-Dawley rats; tail-cuff, conscious rats, MBG versus control, immunization versus partial nephrectomy): some increases in BP; concentration at 4 weeks [1]: 0.546 ± 0.034 nM; displacement of digoxin standards [2]: exactly similar displacement of digoxin standards
CC(=O)O[C@H]1[C@H]2O[C@]23[C@@H]2CC[C@]4(O)C[C@@H](O)CC[C@]4(C)[C@H]2CC[C@]3(C)[C@H]1c1ccc(=O)oc1 [Cinobufotalin]	4%	43%	58%	–
